According to US20190038703A1, “METHODS OF TREATING ACUTE MYELOID LEUKEMIA WITH A FLT3 MUTATION” (Biokine Therapeutics Ltd., priority 2013, published 2019):
Where a SMILES comes first, the peptide text is derived from it. Bridges are numbered along the chain shown (N, C = ends). [ ]: non-standard residue; d: D form. The star is where a group is joined. 2Nal = N[C@@H](Cc1ccc2ccccc2c1)C(=O)O; Benzoyl(4-F) = O=C(c1ccc(F)cc1)*; Cit = NC(=O)NCCC[C@H](N)C(=O)O

Legend:
[1] = test system: human primary AML cells with FLT3-ITD; assay: Survival assay (PI staining, FACS), human primary AML cells with FLT3-ITD; assay type: cell-based; conditions: 48 hr; for decrease of the number of viable cells: human
Source text: (§1) Human primary AML cells with FLT3-ITD mutation and with FLT3-WT were obtained from AML patients after getting their consent in accordance with regulations of Chaim Sheba Medical Center (Tel-Aviv, Israel). Peripheral blood mononuclear cells (PBMCs) were separated from blood samples by density-gradient centrifugation on Ficoll-Paque (Pharmacia Biotech, Uppsala, Sweden). The cells were suspended in […] (FCS; Biological Industries, Kibbutz Beit Haemek, Israel), supplement with 10% DMSO then stored in liquid nitrogen. Prior to commencing a toxicity assay the isolated cells were thawed, re-suspended in Roswell Park Memorial Institute medium (RPMI 1640; Gibco BRL life technologies) supplemented with 20% FCS and incubated for 4 hr at 37° C. Isolated cells with FLT3-ITD mutation or with FLT3 wild type (FLT3-WT) were identified by using a procedure essentially as described by Levis and Small (Leukemia 17: 1738-1752, 2003). […] Following incubation the cells were stained with propidium iodide (PI; Sigma, St. Louis, Mo.; 1:1000) and the incidence of dead cells (% PI-positive) and the density of viable cells (PI-negative) were determined by FACScalibur using the procedure described by Beider and Begin (Exp Hematol 39: 282-92, 2011).

[2] = test system: human primary AML cells with wild-type FLT3; assay: Survival assay (PI staining, FACS), human primary AML cells with FLT3-WT; assay type: cell-based; conditions: 48 hr; for decrease of the number of viable cells: human
Source text: as §1

[3] = test system: human AML MV4-11 cells (FLT3-ITD); assay: Example 2 in-vitro viability and apoptosis by FACS; assay type: cell-based; conditions: BL-8040 20 μM, 48 hrs
Experimental: Methods: The human AML MV4-11 cells (FLT3-ITD) was used. Cells were in-vitro incubated for 48 hrs in the presence of BL-8040 (20 μM), AC220 (50 nM) or their combination. The level of viable cells, percentage of apoptosis was evaluated by FACS.

[4] = test system: MV4-11 cells engrafted in NOD SCID gamma (NSG) mice; assay: AML model of NSG mice engrafted with MV4-11 cells; assay type: in vivo, mouse; conditions: AC220 10 mg/Kg oral, daily for 7 days; for AML cells in the BM / percentage of alive AML blasts in the blood / level of AML cells in the spleen: BL-8040 400 ug/mouse SC; for AML cells in the BM: control 12.6%, FIGS. 11A-11B; for percentage of alive AML blasts in the blood: control 13.5%, FIG. 9; for level of AML cells in the spleen: control 21%, FIGS. 12A-12B
Experimental: In the in-vivo study an AML model of NOD SCID gamma (NSG) mice engrafted with MV4-11 cells was used. […] The survival and apoptosis of AML cells were examined in the blood, BM and spleen of engrafted mice.
Female mice at the age of 7-9 weeks day (−1) 26/1/14: mice were irradiated with 200 rad 24 hr before cells injection day 0-27/1/14: mice were IV injected with 10×10^6 of MV4-11 cells in total volume of 200 ul PBS.

human AML xenografts = conditions: subcutaneous injections; Beider et al., Exp. Hematol. 2011; cited from earlier work
[5] = test system: malignant cells of hematopoietic origin including AML; conditions: cited from earlier work

SMILES | increase of the percentage of dead cells ([1]; BL-8040 8 μM, FIG. 1A) [%] | increase of the percentage of dead cells ([1]; BL-8040 20 μM, FIG. 7A) [%] | decrease of the number of viable cells ([1]; 8 μM) [%] | decrease of the number of viable cells ([1]; 20 μM) [%] | increase of the percentage of dead cells ([2]; BL-8040 8 μM, FIG. 2A) [%] | increase of the percentage of dead cells ([2]; BL-8040 20 μM, FIG. 8A) [%] | decrease of the number of viable cells ([2]; 8 μM) [%] | decrease of the number of viable cells ([2]; 20 μM) [%] | inhibition of cell growth [3] [%] | cell death ([3]; AC220 50 nM or their combination) [%] | AML cells in the BM [4] [%] | percentage of alive AML blasts in the blood [4] [%] | level of AML cells in the spleen [4] [%] | growth of human AML xenografts (human AML xenografts) | cytotoxicity toward malignant cells of hematopoietic origin [5] | reduction of total mouse WBC compared to the control ([4]; FIG. 10) [%]
N=C(N)NCCC[C@H](NC(=O)[C@@H]1CSSC[C@H](NC(=O)[C@H](Cc2ccc3ccccc3c2)NC(=O)[C@H](CCCNC(=N)N)NC(=O)[C@H](CCCNC(=N)N)NC(=O)c2ccc(F)cc2)C(=O)N[C@@H](Cc2ccc(O)cc2)C(=O)N[C@@H](CCCNC(N)=O)C(=O)N[C@@H](CCCCN)C(=O)N[C@H](CCCCN)C(=O)N2CCC[C@H]2C(=O)N[C@@H](Cc2ccc(O)cc2)C(=O)N[C@@H](CCCNC(=N)N)C(=O)N[C@@H](CCCNC(N)=O)C(=O)N1)C(N)=O [BL-8040, 4F-benzoyl-Arg-Arg-Nal-Cys-Tyr-Cit-Lys-DLys-Pro-Tyr-Arg-Cit-Cys-Arg-NH2] ({Benzoyl(4-F)}-RR[2Nal]CY[Cit]K[dK]PYR[Cit]CR-NH2; disulfide 4-13) | 79.3 | 116.6 | 28.8 | 50.0 | 13.7 | 56.3 | 16.1 | 34.4 | 35 | 40 | 2.6 | 1.7 | 0.4 | significantly reduced the growth | CXCR4-dependent preferential cytotoxicity | –
CC(C)(C)c1cc(NC(=O)Nc2ccc(-c3cn4c(n3)sc3cc(OCCN5CCOCC5)ccc34)cc2)no1 [AC220, Quizartinib] | – | – | – | – | – | – | – | – | – | – | 0.05 | 0.1 | 0.09 | – | – | 65
